Laboratory results from ChEMBL document CHEMBL5120924 (J Nat Prod, 2022).

What was measured:
OVCAR-3 = assay: Cytotoxicity against human OVCAR-3 cells assessed as reduction in cell viability measured after 72 hrs by celltiter-blue cell viability assay; type: functional, cell-based; conditions: OVCAR-3, 72 h
MDA-MB-435 = assay: Cytotoxicity against human MDA-MB-435 cells assessed as reduction in cell viability measured after 72 hrs by celltiter-blue cell viability assay; type: functional, cell-based; conditions: MDA-MB-435, 72 h

| SMILES | IC50 (OVCAR-3) | IC50 (MDA-MB-435) |
| --- | --- | --- |
| COc1cc(O)c2c(c1)[C@H]1O[C@@H]1C[C@H](OC(=O)/C=C\C(=O)O)[C@H](OC(=O)/C=C\C(=O)O)C(=O)/C=C\C[C@H](C)OC2=O | 1700 nM | 1700 nM |
| COc1cc(O)c2c(c1)[C@H]1O[C@@H]1C[C@H](OC(C)=O)[C@H](O)C(=O)/C=C\C[C@H](C)OC2=O | 1700 nM | 1700 nM |
| COc1cc(O)c2c(c1)[C@H]1O[C@@H]1C[C@H](OC(=O)CCC(=O)O)[C@H](O)C(=O)/C=C\C[C@H](C)OC2=O | 1700 nM | 1700 nM |
| COc1cc(O)c2c(c1)[C@H]1O[C@@H]1C[C@H](OC(=O)/C=C\C(=O)O)[C@H](O)C(=O)/C=C\C[C@H](C)OC2=O | 1700 nM | 1700 nM |
| C=CCOC(=O)O[C@H]1C[C@H]2O[C@@H]2c2cc(OC)cc(O)c2C(=O)O[C@@H](C)C/C=C\C(=O)[C@H]1O | 1700 nM | 1700 nM |
| COc1cc(O)c2c(c1)[C@H]1O[C@@H]1C[C@H](O)[C@H](O)C(=O)/C=C\C[C@H](C)OC2=O [HYPOTHEMYCIN] | 2600 nM | 1900 nM |
| COc1cc(O)c2c(c1)[C@H]1O[C@@H]1C[C@H](O)[C@H](OC(C)=O)C(=O)/C=C\C[C@H](C)OC2=O | 1700 nM | 1700 nM |
| C=CCOC(=O)O[C@@H]1C(=O)/C=C\C[C@H](C)OC(=O)c2c(O)cc(OC)cc2[C@H]2O[C@@H]2C[C@@H]1O | 1700 nM | 1700 nM |
| COC(=O)O[C@@H]1C(=O)/C=C\C[C@H](C)OC(=O)c2c(O)cc(OC)cc2[C@H]2O[C@@H]2C[C@@H]1O | 1700 nM | 1700 nM |
| CCOC(=O)O[C@H]1C[C@H]2O[C@@H]2c2cc(OC)cc(O)c2C(=O)O[C@@H](C)C/C=C\C(=O)[C@H]1O | 1700 nM | 1700 nM |
| COC(=O)O[C@H]1C[C@H]2O[C@@H]2c2cc(OC)cc(O)c2C(=O)O[C@@H](C)C/C=C\C(=O)[C@H]1O | 1700 nM | 1700 nM |
